In US20220160686A1, “MACROCYCLIC AZOLOPYRIDINE DERIVATIVES AS EED AND PRC2 MODULATORS” (Fulcrum Therapeutics, Inc., priority 2019, published 2022):
Like-named read-outs stand apart in the source and are kept apart here.

What was measured:
[1] = molecular target: T1, biotinylated AVI-tagged EED (76-441) (Homo sapiens, UniProt O75530); test: EED binding SPR assay; conditions: 1:1 binding model; read-out: KD, equilibrium dissociation constant as measured by surface plasmon resonance (SPR)
T1 construct: GST (N, cleaved yes); made in house; host or cells: E. coli BL21(DE3), co-expressed with pGro7
Protocol: Biotinylated AVI-tagged EED was produced using standard molecular biology techniques. A pGEX plasmid with a GST-preScission-cleavage-site-AVI-EED(76-441) sequence was placed into E. coli BL21(DE3) cells and co-expressed with pGro7. The E. coli were grown in shaker flasks in LB with ampicillin at 37° C. at 110 rpm to an OD600=0.7. At this time the temperature was lowered to 15° C. and IPTG was added to 0.3 mM. The cells were allowed to express overnight. Cells were then harvested.
For purification, the E. coli cell pellet was lysed into a buffer of 50 mM Tris pH 8.0, 500 mM NaCl, 5% glycerol and 5 mM DTT. The lysate was loaded onto a GSTrap FF column from GE Healthcare. After washing, the bound protein was eluted with 50 mM Tris pH 8.0, 500 mM NaCl, 5% glycerol, 5 mM DTT and 15 mM GSH. The collected fractions were combined and incubated with PreScission enzyme overnight at 4° C. The cleaved protein was then passed through a GSTrap FF column in a buffer of 50 mM Tris pH 8.0, 500 mM NaCl, 5% glycerol and 5 mM DTT. The cleaved protein was confirmed through mass spectrometry. The AVI-EED(76-441) was then buffer exchanged into 50 mM Bicine pH 8.3, 10 mM ATP, 10 mM magnesium acetate and 50 μM D-Biotin. 3 mg of BirA enzyme was added to the system and incubated at 4° C. for 2 hours to biotinylate the AVI-EED(76-441). The biotinylated-AVI-EED(76-441) was then buffer exchanged into 20 mM Tris pH 8.0 and 400 mM NaCl and passed through a size exclusion column of Superdex 200 16/60 Increase. The purified monomeric biotinylated-AVI-EED(76-441) was confirmed through SDS-PAGE, LC-MS and analytical size exclusion chromatography.
All surface plasmon resonance (SPR) assays were performed using a GE Biacore S200 utilizing GE Biotin CAPture chips. Capturing of CAP reagents was performed with a flow rate of 2 μL/min for 90 seconds. For protein capturing, a solution of 50 μg/mL of biotinylated AVI-tagged EED (76-441) in 10 mM HEPES pH 7.4, 150 mM NaCl, 0.05% Tween 20 and 2% DMSO (Running Buffer) was flowed over the chip with a flow rate of 5 μL/min for a contact time of 30 seconds. Final readings were 2200-2400 RU. For compounds, 7 concentrations were made with 3-dilutions using the Running Buffer for a total of 300 μL of each concentration in a 96-well microplate. During the binding experiments, a flow rate of […] was used for an association time of 90 seconds followed by a disassociation time of 180 seconds. The compartment temperature was set at 10° C. with the chip at 25° C. During regeneration the flow rate was set to 30 μL/min for 30 seconds. All fittings were done using a 1:1 binding model.

[2] = test system: human P-glycoprotein HEK cells (HEK-P-gp); test: H3K27me3 immunocytochemistry assay in P-gp expressing HEK293T cells, with or without elacridar; type: cell-based; conditions: Homo sapiens, 4 days compound treatment
Protocol: A plasmid encoding the human ABCB1 gene under the control of a CMV promoter was purchased from Origene (Cat #RC216080). The HEK293T cells were purchased from ATCC (Cat #CRL-3216) and were cultured for expansion in the recommended conditions. The HEK293T cells were transfected with 2 ug of the pCMV-ABCB1 plasmid using Lipofectamine 3000 following recommendations from the manufacturer (ThermoFisher Scientific, Cat #L3000008). After 24 h, cells were dissociated, and 5000 cells were seeded on a 10 cm tissue culture dish. On the next day, fresh media containing 5 nM Vinblastine (Sigma, Cat #V1377) was added, and media containing compound was replenished every 72 h. After surviving cells reached confluency, cells were passaged, and lines were maintained in the presence of 2.5 nM Vinblastine until further characterization.
P-gp expressing HEK293T, HUDEP2, and Human Mobilized Peripheral Blood Primary CD34+ cells were cultured for use in an H3K27me3 immunocytochemistry assay. HUDEP2 and Human Mobilized Peripheral Blood Primary CD34+ cells were cultured for use in an HbF immunocytochemistry assay. P-gp expressing HEK293T cells were maintained and passaged every 3-4 days by plating 300,000 viable cells in a T-25 culture flask containing 6 mLs of 293 Passaging Media comprised of DMEM (ThermoFisher #10566016), 10% fetal bovine serum (ThermoFisher #A3160502), 1% penicillin-streptomycin (ThermoFisher #15140122), and 2.5 nM Vinblastine (Sigma #V1377). To evaluate the inhibitory effect of the compounds of the present disclosure and their brain penetrant properties via P-gp mediated efflux, the H3K27me3 immunocytochemistry assay was conducted in the presence or absence of 250 nM of the P-gp inhibitor, elacridar. Poor brain penetrant compounds were expected to show higher potencies in the presence of Elacridar. However, brain penetrant compounds would show similar potencies irrespective of whether Elacridar is present or not. In these experiments plates without elacridar were seeded with P-gp expressing HEK293T cells at 1000 viable cells per well in a poly-d-lysine coated 384-well plate (Corning Cat #356697) in 45 μL of 293 Assay Media comprised of DMEM (ThermoFisher #10566016), 10% fetal bovine serum (ThermoFisher #A3160502), 1% penicillin-streptomycin (ThermoFisher #15140122). A replicate set of plates were seeded under the same conditions with 45 μL of 293 Assay Media supplemented with 250 nM of Elacridar to inhibit P-gp activity. Compounds were serially diluted at 10× concentration in 293 Media, and 5 μL transferred to their respective wells on both sets of plates for a total volume of 50 μL per well. The compound treated HEK293T cells were allowed to incubate for 4 days at 37° C., 85% relative humidity, and 5% CO2 before proceeding to ICC Fix and Stain protocol.
The Fix and Stain Protocol was the same for HEK293T, HUDEP2, and Primary CD34+ cell assays except the specific primary and secondary antibodies used for detection. Following 4 days of compound treatment, the respective plates were washed once with 25 μL of PBS (ThermoFisher #10010023) and fixed with 25 μL of 4% paraformaldehyde (ThermoFisher #28908) for 10 minutes at room temperature. The plates were then washed three times with 25 μL of PBS. Subsequent to that, the cells were permeabilized and blocked for 1 hour at room temperature in 25 μL of Perm/Block buffer comprised of IX PBS, 1% bovine serum albumin (ThermoFisher #A3294), 10% fetal bovine serum (ThermoFisher #A3160502), 0.3M glycine (Sigma #G7126), and 0.1% tween-20 (Sigma #P7949). This was followed by additional washing (three times) of the plates with 25 μL of 0.1% tween in PBS.
For the H3K27me3 assay, the cells were incubated overnight at 4° C. with 25 μL of H3K27me3 Primary Antibody (Cell Signaling #9733) diluted 1:200 in 0.1% tween-20 in PBS. […]

[3] = HEK293, 96 h, without elacridar, read-out: IC50, inhibitory activity on human P-glycoprotein HEK cells (HEK-P-gp)
[4] = HEK293, with 250 nM elacridar, read-out: IC50, inhibitory activity on human P-glycoprotein HEK cells (HEK-P-gp) pretreated with elacridar

T1 sequence (O75530 76-441 limits assumed): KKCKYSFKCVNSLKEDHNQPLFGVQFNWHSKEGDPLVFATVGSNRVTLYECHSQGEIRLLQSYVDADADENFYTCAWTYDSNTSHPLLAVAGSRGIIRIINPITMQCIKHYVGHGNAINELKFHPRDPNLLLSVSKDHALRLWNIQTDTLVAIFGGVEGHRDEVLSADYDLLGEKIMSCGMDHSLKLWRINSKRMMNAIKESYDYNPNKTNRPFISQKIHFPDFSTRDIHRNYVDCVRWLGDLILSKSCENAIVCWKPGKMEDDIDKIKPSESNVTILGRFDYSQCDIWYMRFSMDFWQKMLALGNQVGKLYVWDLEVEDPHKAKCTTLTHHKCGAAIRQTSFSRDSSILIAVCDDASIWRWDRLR

| Kd [1] [nM] | Structure (SMILES) | IC50 [2, 3] [nM] | IC50 [2, 4] [nM] |
| --- | --- | --- | --- |
| < 2.5 | Fc1ccc2c3c1CNc1c(cc(-c4ccc(N5CCOCC5)nc4)c4nncn14)OC[C@H]3CO2 [Example 116] | > 500 | 100 to 500 |
| < 2.5 | Fc1ccc2c3c1CNc1c(cc(-c4cnco4)c4nncn14)OC[C@@H]3CO2 [Compound 188, (S)-12-fluoro-4-(oxazol-5-yl)-7a,8,13,14-tetrahydro-7H-[1,2,4]triazolo[4′,3′:1,6]pyrido[3,2-b]benzofuro[4,3-fg][1,4]oxazonine] | 100 to 500 | 100 to 500 |
| 5 to 10 | COc1nc(C)ccc1-c1cc2c(n3cnnc13)NCc1c(F)ccc3c1[C@H](CO3)CO2 [Example 105] | 100 to 500 | 100 to 500 |
| < 2.5 | Fc1ccc2c3c1CNc1c(cc(-c4cnc(C5CC5)nc4)c4nncn14)OC[C@@H]3CO2 [Compound 178, (S)-4-(2-cyclopropylpyrimidin-5-yl)-12-fluoro-7a,8,13,14-tetrahydro-7H-[1,2,4]triazolo[4′,3′:1,6]pyrido[3,2-b]benzofuro[4,3-fg][1,4]oxazonine] | 100 to 500 | 50 to 100 |
| < 2.5 | Cc1ncc(-c2cc3c(n4cnnc24)NCc2c(F)ccc4c2[C@@H](CO4)CO3)cc1N [Compound 179, (S)-5-(12-fluoro-7a,8,13,14-tetrahydro-7H-[1,2,4]triazolo[4′,3′:1,6]pyrido[3,2-b]benzofuro[4,3-fg][1,4]oxazonin-4-yl)-2-methylpyridin-3-amine] | > 500 | 100 to 500 |
| < 2.5 | Cc1cn(C)c(-c2cc3c(n4cnnc24)NCc2c(F)ccc4c2C(CO4)CO3)n1 (stereo in doubt) [Compound 135, (S)-4-(1,4-dimethyl-1H-imidazol-2-yl)-12-fluoro-7a,8,13,14-tetrahydro-7H-[1,2,4]triazolo[4',3':1,6]pyrido]3,2-b]benzofuro[4,3-fg][1,4]oxazonine] | 50 to 100 | 50 to 100 |
| 2.5 to 5 | Cc1cncnc1-c1cc2c(n3cnnc13)NCc1c(F)ccc3c1[C@@H](CO3)CO2 [Compound 162, (S)-12-fluoro-4-(5-methylpyrimidin-4-yl)-7a,8,13,14-tetrahydro-7H-[1,2,4]triazolo[4′,3′:1,6]pyrido[3,2-b]benzofuro[4,3-fg][1,4]oxazonine] | 25 to 50 | 50 to 100 |
| < 2.5 | Fc1ccc2c3c1CNc1c(cc(-c4cnn5c4CCC5)c4nncn14)OC[C@@H]3CO2 [Compound 171, (S)-4-(5,6-dihydro-4H-pyrrolo[1,2-b]pyrazol-3-yl)-12-fluoro-7a,8,13,14-tetrahydro-7H-[1,2,4]triazolo[4',3':1,6]pyrido[3,2-b]benzofuro [4,3-fg][1,4] oxanzonine] | > 500 | > 500 |
| < 2.5 | CN(C)c1ncc(-c2cc3c(n4cnnc24)NCc2c(F)ccc4c2[C@H](CO4)CO3)cn1 [Example 108] | > 500 | > 500 |
| < 2.5 | OCc1ncccc1-c1cc2c(n3cnnc13)NCc1c(F)ccc3c1C(CO3)CO2 [Compound 195, (S)-(3-(12-fluoro-7a,8,13,14-tetrahydro-7H-[1,2,4]triazolo[4′,3′:1,6]pyrido[3,2-b]benzofuro[4,3-fg][1,4]oxazonin-4-yl)pyridin-2-yl)methanol] | < 25 | 50 to 100 |
| < 2.5 | CN1CCN(c2ncc(-c3cc4c(n5cnnc35)NCc3c(F)ccc5c3[C@H](CO5)CO4)cn2)CC1 [Example 118] | 100 to 500 | 50 to 100 |
| < 2.5 | Cc1nc(O)ccc1-c1cc2c(n3cnnc13)NCc1c(F)ccc3c1[C@@H](CO3)CO2 [Compound 187, (S)-5-(12-fluoro-7a,8,13,14-tetrahydro-7H-[1,2,4]triazolo[4′,3′:1,6]pyrido[3,2-b]benzofuro[4,3-fg][1,4]oxazonin-4-yl)-6-methylpyridin-2-ol] | > 500 | > 500 |
| < 2.5 | Cc1cc(-c2cc3c(n4cnnc24)NCc2c(F)ccc4c2[C@H](CO4)CO3)cnn1 [Example 123] | > 500 | > 500 |
| 5 to 10 | Cc1cc(-c2cc3c(n4cnnc24)NCc2c(F)ccc4c2[C@@H](CO4)CO3)ncn1 [Compound 161, (S)-12-fluoro-4-(6-methylpyrimidin-4-yl)-7a,8,13,14-tetrahydro-7H-[1,2,4]triazolo[4′,3′:1,6]pyrido[3,2-b]benzofuro[4,3-fg][1,4]oxazonine] | > 500 | > 500 |
| < 2.5 | Fc1ccc2c3c1CNc1c(cc(-c4ncncc4Cl)c4nncn14)OC[C@@H]3CO2 [Compound 163, (S)-4-(5-chloropyrimidin-4-yl)-12-fluoro-7a,8,13,14-tetrahydro-7H-[1,2,4]triazolo[4′,3′:1,6]pyrido[3,2-b]benzofuro[4,3-fg][1,4]oxazonine] | 100 to 500 | 25 to 50 |
